ChEMBL document CHEMBL3885861, “Open TG-GATES”

Organism: Rattus norvegicus
Assay: Open TG-GATES - Regimen: Daily Repeat
Format: toxicity, organism-based, Sprague-Dawley
Set-up: regimen Daily Repeat, gender Male, age 6 weeks
Conditions: in vivo, po, 20 mg/kg, route gavage, dose level Low; for APTT / Bas / Eos / Fbg / Hb / Ht / Lym / MCH / MCHC / MCV / Mono / Neu / PT / Plat / RBC / Ret / WBC: tissue Blood; for KIDNEY_L / KIDNEY_R / KIDNEY_TOTAL: tissue Kidney; for LIVER: tissue Liver; for A/G / ALP / ALT / AST / BUN / CRE / Ca / Cl / DBIL / GLC / IP / K / LDH / Na / PL / RALB / TBIL / TC / TG / TP / gamma-GTP: tissue Plasma

For Cn1c(=O)c2[nH]cnc2n(C)c1=O.O [THEOPHYLLINE], the TERMINAL_BW (72 h, time 3 day) was 242.7 g, the APTT (72 h, time 3 day) was 22.4 s and the Bas (72 h, time 3 day) was 0%. It also gave an Eos (72 h, time 3 day) of 1%, a Fbg (72 h, time 3 day) of 305.4 mg/dL and a Hb (72 h, time 3 day) of 13.4 g/dL. For the same molecule, the Ht (72 h, time 3 day) was 39.6%, the Lym (72 h, time 3 day) was 76.6% and the MCH (72 h, time 3 day) was 21.2 pg. For the same molecule, the MCHC (72 h, time 3 day) was 33.8%, the MCV (72 h, time 3 day) was 62.6 fL and the Mono (72 h, time 3 day) was 3.2%. It also gave a Neu (72 h, time 3 day) of 18%, a PT (72 h, time 3 day) of 15.5 s and a Plat (72 h, time 3 day) of 119.5 x10_4/uL. For the same molecule, the RBC (72 h, time 3 day) was 632.4 x10_4/ul, the Ret (72 h, time 3 day) was 5.9% and the WBC (72 h, time 3 day) was 125.2 x10_2/uL. It also gave a KIDNEY_L (72 h, time 3 day) of 1.1 g, a KIDNEY_R (72 h, time 3 day) of 1.1 g and a KIDNEY_TOTAL (72 h, time 3 day) of 2.1 g. It also gave an LIVER (72 h, time 3 day) of 10.9 g, an A/G (72 h, time 3 day) of 1.3 and an ALP (72 h, time 3 day) of 1574.4 IU/L. The ALT (72 h, time 3 day) was 45.2 IU/L, the AST (72 h, time 3 day) was 71.8 IU/L and the BUN (72 h, time 3 day) was 15.4 mg/dL. It also gave a CRE (72 h, time 3 day) of 0.2 mg/dL, a Ca (72 h, time 3 day) of 10.6 mg/dL and a Cl (72 h, time 3 day) of 106.8 meq/L. The DBIL (72 h, time 3 day) was 0 mg/dL, the GLC (72 h, time 3 day) was 194.8 mg/dL and the IP (72 h, time 3 day) was 7.4 mg/dL. For the same molecule, the K (72 h, time 3 day) was 4.4 meq/L, the LDH (72 h, time 3 day) was 167.2 IU/L and the Na (72 h, time 3 day) was 142.4 meq/L. It also gave a PL (72 h, time 3 day) of 132.6 mg/dL, an RALB (72 h, time 3 day) of 3 g/dL and a TBIL (72 h, time 3 day) of 0.004 mg/dL. It also gave a TC (72 h, time 3 day) of 70 mg/dL, a TG (72 h, time 3 day) of 97 mg/dL and a TP (72 h, time 3 day) of 5.5 g/dL. It also gave a gamma-GTP (72 h, time 3 day) of 1.6 IU/L, a TERMINAL_BW ([…], time 7 day) of 271.5 g and a TERMINAL_BW ([…], time 14 day) of 324.6 g. It also gave a TERMINAL_BW ([…], time 28 day) of 357.5 g, an APTT ([…], time 7 day) of 24 s and a Bas ([…], time 7 day) of 0%. The Eos ([…], time 7 day) was 1%, the Fbg ([…], time 7 day) was 312.6 mg/dL and the Hb ([…], time 7 day) was 14.2 g/dL. For the same molecule, the Ht ([…], time 7 day) was 41.1%, the Lym ([…], time 7 day) was 80% and the MCH ([…], time 7 day) was 20.9 pg. The MCHC ([…], time 7 day) was 34.5%, the MCV ([…], time 7 day) was 60.5 fL and the Mono ([…], time 7 day) was 2.6%. It also gave a Neu ([…], time 7 day) of 14.4%, a PT ([…], time 7 day) of 15.4 s and a Plat ([…], time 7 day) of 111.8 x10_4/uL. For the same molecule, the RBC ([…], time 7 day) was 679 x10_4/ul, the Ret ([…], time 7 day) was 5.3% and the WBC ([…], time 7 day) was 121.9 x10_2/uL. For the same molecule, the APTT ([…], time 14 day) was 24.1 s, the Bas ([…], time 14 day) was 0% and the Eos ([…], time 14 day) was 1%. The Fbg ([…], time 14 day) was 333.4 mg/dL, the Hb ([…], time 14 day) was 14.4 g/dL and the Ht ([…], time 14 day) was 42.7%. For the same molecule, the Lym ([…], time 14 day) was 80%, the MCH ([…], time 14 day) was 19.9 pg and the MCHC ([…], time 14 day) was 33.7%. The MCV ([…], time 14 day) was 59 fL, the Mono ([…], time 14 day) was 2.4% and the Neu ([…], time 14 day) was 14.6%. It also gave a PT ([…], time 14 day) of 15.3 s, a Plat ([…], time 14 day) of 110.9 x10_4/uL and an RBC ([…], time 14 day) of 724.8 x10_4/ul. It also gave a Ret ([…], time 14 day) of 4.9%, a WBC ([…], time 14 day) of 110 x10_2/uL and an APTT ([…], time 28 day) of 26.7 s. The Bas ([…], time 28 day) was 0%, the Eos ([…], time 28 day) was 1% and the Fbg ([…], time 28 day) was 333.2 mg/dL. It also gave a Hb ([…], time 28 day) of 15.4 g/dL, a Ht ([…], time 28 day) of 44.6% and a Lym ([…], time 28 day) of 83.6%. It also gave an MCH ([…], time 28 day) of 18.7 pg, an MCHC ([…], time 28 day) of 34.4% and an MCV ([…], time 28 day) of 54.4 fL. The Mono ([…], time 28 day) was 1.6%, the Neu ([…], time 28 day) was 12.8% and the PT ([…], time 28 day) was 15.8 s. For the same molecule, the Plat ([…], time 28 day) was 108.7 x10_4/uL, the RBC ([…], time 28 day) was 820.8 x10_4/ul and the Ret ([…], time 28 day) was 2.5%. For the same molecule, the WBC ([…], time 28 day) was 112.5 x10_2/uL, the KIDNEY_L ([…], time 7 day) was 1.1 g and the KIDNEY_R ([…], time 7 day) was 1.2 g. The KIDNEY_TOTAL ([…], time 7 day) was 2.3 g, the KIDNEY_L ([…], time 14 day) was 1.3 g and the KIDNEY_R ([…], time 14 day) was 1.3 g. It also gave a KIDNEY_TOTAL ([…], time 14 day) of 2.6 g, a KIDNEY_L ([…], time 28 day) of 1.3 g and a KIDNEY_R ([…], time 28 day) of 1.4 g. The KIDNEY_TOTAL ([…], time 28 day) was 2.8 g, the LIVER ([…], time 7 day) was 12.4 g and the LIVER ([…], time 14 day) was 14.3 g. It also gave an LIVER ([…], time 28 day) of 13.8 g, an A/G ([…], time 7 day) of 1.1 and an ALP ([…], time 7 day) of 1498.6 IU/L. It also gave an ALT ([…], time 7 day) of 40 IU/L, an AST ([…], time 7 day) of 68.2 IU/L and a BUN ([…], time 7 day) of 19.2 mg/dL. The CRE ([…], time 7 day) was 0.2 mg/dL, the Ca ([…], time 7 day) was 10.3 mg/dL and the Cl ([…], time 7 day) was 106.2 meq/L. For the same molecule, the DBIL ([…], time 7 day) was 0 mg/dL, the GLC ([…], time 7 day) was 185.4 mg/dL and the IP ([…], time 7 day) was 7.3 mg/dL. It also gave a K ([…], time 7 day) of 4.2 meq/L, an LDH ([…], time 7 day) of 184.6 IU/L and a Na ([…], time 7 day) of 142.2 meq/L. The PL ([…], time 7 day) was 150 mg/dL, the RALB ([…], time 7 day) was 3 g/dL and the TBIL ([…], time 7 day) was 0.004 mg/dL. The TC ([…], time 7 day) was 77.2 mg/dL, the TG ([…], time 7 day) was 106.2 mg/dL and the TP ([…], time 7 day) was 5.7 g/dL. The gamma-GTP ([…], time 7 day) was 1.8 IU/L, the A/G ([…], time 14 day) was 1.2 and the ALP ([…], time 14 day) was 1256.2 IU/L. It also gave an ALT ([…], time 14 day) of 37 IU/L, an AST ([…], time 14 day) of 64 IU/L and a BUN ([…], time 14 day) of 17.8 mg/dL. For the same molecule, the CRE ([…], time 14 day) was 0.2 mg/dL, the Ca ([…], time 14 day) was 10.3 mg/dL and the Cl ([…], time 14 day) was 106.4 meq/L. It also gave a DBIL ([…], time 14 day) of 0 mg/dL, a GLC ([…], time 14 day) of 177.6 mg/dL and an IP ([…], time 14 day) of 7.4 mg/dL. It also gave a K ([…], time 14 day) of 4.2 meq/L, an LDH ([…], time 14 day) of 140.8 IU/L and a Na ([…], time 14 day) of 141.8 meq/L. It also gave a PL ([…], time 14 day) of 152.2 mg/dL, an RALB ([…], time 14 day) of 3.1 g/dL and a TBIL ([…], time 14 day) of 0.008 mg/dL. It also gave a TC ([…], time 14 day) of 82.4 mg/dL, a TG ([…], time 14 day) of 92.4 mg/dL and a TP ([…], time 14 day) of 5.8 g/dL. It also gave a gamma-GTP ([…], time 14 day) of 2.6 IU/L, an A/G ([…], time 28 day) of 1.1 and an ALP ([…], time 28 day) of 1031.2 IU/L. For the same molecule, the ALT ([…], time 28 day) was 39.8 IU/L, the AST ([…], time 28 day) was 68.2 IU/L and the BUN ([…], time 28 day) was 16.6 mg/dL. It also gave a CRE ([…], time 28 day) of 0.2 mg/dL, a Ca ([…], time 28 day) of 10.1 mg/dL and a Cl ([…], time 28 day) of 107 meq/L. It also gave a DBIL ([…], time 28 day) of 0 mg/dL, a GLC ([…], time 28 day) of 192.2 mg/dL and an IP ([…], time 28 day) of 6.2 mg/dL. It also gave a K ([…], time 28 day) of 3.8 meq/L, an LDH ([…], time 28 day) of 134.6 IU/L and a Na ([…], time 28 day) of 143 meq/L. It also gave a PL ([…], time 28 day) of 137.6 mg/dL, an RALB ([…], time 28 day) of 3.2 g/dL and a TBIL ([…], time 28 day) of 0.016 mg/dL. For the same molecule, the TC ([…], time 28 day) was 73.6 mg/dL, the TG ([…], time 28 day) was 97.6 mg/dL and the TP ([…], time 28 day) was 6.1 g/dL. The gamma-GTP ([…], time 28 day) was 2 IU/L.
